In assay [1] the target is Angiopoietin-1 receptor (Homo sapiens, UniProt Q02763). In words: Inhibition of Tie2 kinase by autophosphorylation assay. The format is functional.
A short description of assay [2]: Inhibition of P38 kinase. Also on record: species or system Homo sapiens.
Assay [3] concerns Mus musculus. As to the kind of experiment: Reduction in bFGF-induced angiogenesis in Matrigel mouse model at 50 mg/kg, ip bid. The format is functional. Details: scale not given: the % may be the effect or the level left. The note with it: route intraperitoneal.
Assay [4] has as its system Mus musculus. As to the kind of experiment: Reduction in bFGF-induced angiogenesis in Matrigel mouse model at 25 mg/kg, ip bid. The following applies: route intraperitoneal. The class given is functional. Also on record: scale not given: the % may be the effect or the level left.
Assay [5] deals with MOPC 315. As to the kind of experiment: Efficacy in mouse MOPC315 cells xenografted mouse assessed as delay in tumor growth. The class given is functional, cell-based.

Molecules are shown by their SMILES.

For 10 compounds, IC50 and Activity results are on record in ChEMBL document CHEMBL1149658, “Pyridinylimidazole inhibitors of Tie2 kinase” (Bioorg Med Chem Lett, 2007).

One may read the IC50 as the point on the concentration scale where inhibition reaches its midpoint.

Chain of Angiopoietin-1 receptor (Q02763 whole entry): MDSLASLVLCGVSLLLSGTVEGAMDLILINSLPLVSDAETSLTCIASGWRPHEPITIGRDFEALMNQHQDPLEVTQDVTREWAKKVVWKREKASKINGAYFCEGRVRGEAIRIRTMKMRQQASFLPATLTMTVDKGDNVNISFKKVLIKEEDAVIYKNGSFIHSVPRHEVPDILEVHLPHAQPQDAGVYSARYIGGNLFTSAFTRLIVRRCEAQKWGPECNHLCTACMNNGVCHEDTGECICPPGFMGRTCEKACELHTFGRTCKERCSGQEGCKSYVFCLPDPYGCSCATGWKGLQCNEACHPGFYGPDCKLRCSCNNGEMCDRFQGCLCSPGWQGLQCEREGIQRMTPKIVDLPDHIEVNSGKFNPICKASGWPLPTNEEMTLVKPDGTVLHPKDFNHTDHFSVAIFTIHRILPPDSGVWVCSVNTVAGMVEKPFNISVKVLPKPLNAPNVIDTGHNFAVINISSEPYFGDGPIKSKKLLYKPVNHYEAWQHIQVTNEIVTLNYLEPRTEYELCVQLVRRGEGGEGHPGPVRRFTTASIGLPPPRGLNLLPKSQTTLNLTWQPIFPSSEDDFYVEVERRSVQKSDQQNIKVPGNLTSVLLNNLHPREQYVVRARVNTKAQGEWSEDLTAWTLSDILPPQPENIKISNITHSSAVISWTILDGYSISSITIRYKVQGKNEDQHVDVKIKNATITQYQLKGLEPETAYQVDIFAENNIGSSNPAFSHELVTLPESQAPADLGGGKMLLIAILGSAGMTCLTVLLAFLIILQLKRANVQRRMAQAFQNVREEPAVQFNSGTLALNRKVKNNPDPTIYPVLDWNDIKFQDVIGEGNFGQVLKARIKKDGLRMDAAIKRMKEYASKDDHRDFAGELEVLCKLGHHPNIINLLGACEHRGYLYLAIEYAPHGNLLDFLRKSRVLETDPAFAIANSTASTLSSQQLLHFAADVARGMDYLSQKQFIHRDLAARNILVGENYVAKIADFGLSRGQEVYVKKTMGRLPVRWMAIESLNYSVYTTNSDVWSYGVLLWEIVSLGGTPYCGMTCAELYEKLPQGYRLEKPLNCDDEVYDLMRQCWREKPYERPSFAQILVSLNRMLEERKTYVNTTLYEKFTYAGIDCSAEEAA

On to `COc1ccc2cc(-c3nc(-c4ccc([S+](C)[O-])cc4)n(C)c3-c3ccncc3)ccc2c1` (stereo not given), for which the IC50 in assay [1] worked out at 20 µM; in assay [2], 16 µM.
As for `CCCn1c(-c2ccc([S+](C)[O-])cc2)nc(-c2ccncc2)c1-c1ccc2cc(OC)ccc2c1` (stereo not given), the results for the IC50 in assay [1] and in assay [2] were 0.437 µM and greater than 16 µM, respectively.
Take `CCn1c(-c2ccc([S+](C)[O-])cc2)nc(-c2ccncc2)c1-c1ccc2cc(OC)ccc2c1` (stereo not given): the figures for the IC50 in assay [1] and in assay [2] were 5.37 µM and greater than 16 µM, respectively.
For the compound `C[S+]([O-])c1ccc(-c2nc(-c3ccc4ccccc4c3)c(-c3ccncc3)[nH]2)cc1` (stereo not given), the 50% inhibitory concentration (IC50) in assay [1] and in assay [2] was 0.3 µM each time.
For `COc1ccc2cc(-c3c(-c4ccncc4)nc(-c4ccc([S+](C)[O-])cc4)n3C)ccc2c1` (stereo not given), the IC50 in assay [1] came out at 0.06 µM; in assay [2], 16 µM. Further, the Activity in assay [3] worked out at 30%; in assay [4], 5%.
For the compound `C[S+]([O-])c1ccc(-c2nc(-c3ccc4cc(-c5ccccc5)ccc4c3)c(-c3ccncc3)[nH]2)cc1` (stereo not given), the half-maximal inhibitory concentration (IC50) in assay [1] stood at 5.5 µM; in assay [2] it was 16.5 µM.
Taken in the same sequence, the figures for `Cc1ccc2cc(-c3nc(-c4ccc([S+](C)[O-])cc4)[nH]c3-c3ccncc3)ccc2c1` (stereo not given) were 0.219 µM and 0.741 µM.
`COc1ccc2cc(-c3nc(-c4ccc([S+](C)[O-])cc4)[nH]c3-c3ccncc3)ccc2c1` (stereo not given): the IC50 in assay [1] turned out to be 0.25 µM; in assay [2], 50 µM. For the same compound, the results for the Activity in assay [3], in assay [5] and in assay [4] were 70%, “Dose-dependent effect” and 41%, respectively.
For the compound `C[S+]([O-])c1ccc(-c2nc(-c3ccc4cc(Br)ccc4c3)c(-c3ccncc3)[nH]2)cc1` (stereo not given), the half-inhibitory concentration (IC50) in assay [1] stood at 0.339 µM; in assay [2], 4.57 µM.
`COc1ccc2cc(-c3c(-c4ccncc4)nc(-c4ccc([S+](C)[O-])cc4)n3CC(C)C)ccc2c1` (stereo not given): the half-maximal inhibitory concentration (IC50) in assay [1] is 3.89 µM; in assay [2], greater than 16 µM.
